Data taken from patent US20260007681A1, “INDOLE DERIVATIVES AS ESTROGEN RECEPTOR DEGRADERS” (REGENTS OF THE UNIVERSITY OF MICHIGAN, priority 2022, published 2026).

Target: ER (Homo sapiens (Human), UniProt P03372)
Assay: Western blot analysis (Compounds B1-B278)
Type: cell-based
Conditions: ER degradation by traditional Western blot; DC50 classes
Protocol: Western Blot Analysis. The cells that are treated with the compounds are lysed in Radioimmunoprecipitation Assay Protein Lysis and Extraction Buffer (e.g., 25 mmol/L Tris.HCl, pH 7.6, 150 mmol/L NaCl, 1% Nonidet P-40, 1% sodium deoxycholate, and 0.1% sodium dodecyl sulfate) containing proteinase inhibitor cocktail. Equal amounts of total protein are electrophoresed through 10% SDS-polyacrylamide gels after determination of protein concentration by BCA assay. The separated protein bands are transferred onto PVDF membranes and blotted against different antibodies. The blots are scanned, and the band intensities are quantified (e.g., by using GelQuant.NET software provided by biochemlabsolutions.com). The relative mean intensity of target proteins is expressed after normalization to the intensity of glyceraldehyde-3-phosphate dehydrogenase bands.
Western Blot Analysis. Western blot analysis was performed essentially as described previously. The cells treated with indicated compounds were lysed in Radioimmunoprecipitation Assay Protein Lysis and Extraction Buffer (25 mmol/L Tris.HCl, pH 7.6, 150 mmol/L NaCl, 1% Nonidet P-40, 1% sodium deoxycholate, and 0.1% sodium dodecyl sulfate) containing proteinase inhibitor cocktail (Roche Diagnostics, Mannheim, Germany). Equal amounts of total protein were electrophoresed through 10% SDS-polyacrylamide gels after determination of protein concentration by BCA assay (Fisher Scientific, Pittsburgh, PA). The separated protein bands were transferred onto PVDF membranes (GE Healthcare Life Sciences, Marlborough, MA) and blotted against different antibodies, as indicated. The blots were scanned, and the band intensities were quantified using GelQuant.NET software provided by biochemlabsolutions.com. The relative mean intensity of target proteins was expressed after normalization to the intensity of glyceraldehyde-3-phosphate dehydrogenase bands.

Sequence of ER (P03372 whole entry): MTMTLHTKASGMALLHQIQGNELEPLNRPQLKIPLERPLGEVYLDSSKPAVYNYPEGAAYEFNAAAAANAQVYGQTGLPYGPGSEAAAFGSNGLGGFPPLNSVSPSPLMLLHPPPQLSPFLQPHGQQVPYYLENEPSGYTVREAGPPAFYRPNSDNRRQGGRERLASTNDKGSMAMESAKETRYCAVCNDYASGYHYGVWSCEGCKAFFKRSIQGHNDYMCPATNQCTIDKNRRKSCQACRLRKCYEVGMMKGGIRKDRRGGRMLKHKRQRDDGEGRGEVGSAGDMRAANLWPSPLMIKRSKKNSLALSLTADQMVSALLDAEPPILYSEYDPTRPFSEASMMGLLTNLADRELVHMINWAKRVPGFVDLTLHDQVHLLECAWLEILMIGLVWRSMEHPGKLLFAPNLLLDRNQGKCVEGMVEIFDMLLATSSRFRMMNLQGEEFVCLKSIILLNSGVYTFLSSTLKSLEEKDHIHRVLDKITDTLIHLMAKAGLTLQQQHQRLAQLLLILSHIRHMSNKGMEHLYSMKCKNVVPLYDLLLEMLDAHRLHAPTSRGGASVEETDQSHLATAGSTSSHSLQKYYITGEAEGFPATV

Structure (SMILES) | Traditional Western Degradation Potency
C[C@@H]1Cc2c([nH]c3ccccc23)[C@@H](c2c(F)cc(N3CCCC4(CCN(C(=O)CN5Cc6cc7c(cc6C5)C(=O)N(C5CCC(=O)NC5=O)C7=O)C4)C3)cc2F)N1CC(F)F (stereo partly drawn) [Compound B21, 6-(2-(7-(4-((1R,3R)-2-(2,2-difluoroethyl)-3-methyl-2,3,4,9-tetrahydro-1H-pyrido[3,4-b]indol-1-yl)-3,5-difluorophenyl)-2,7-diazaspiro[4.5]decan-2-yl)-2-oxoethyl)-2-(2,6-dioxopiperidin-3-yl)-6,7-dihydropyrrolo[3,4-f]isoindole-1,3(2H,5H)-dione] | C (“C”: >100 nM)
C[C@@H]1Cc2c([nH]c3ccccc23)[C@@H](c2c(F)cc(N3CCC4(CCN(C(=O)CN5Cc6cc7c(cc6C5)C(=O)N(C5CCC(=O)NC5=O)C7=O)C4)C3)cc2F)N1CC(F)F (stereo partly drawn) [Compound B22, 6-(2-(7-(4-((1R,3R)-2-(2,2-difluoroethyl)-3-methyl-2,3,4,9-tetrahydro-1H-pyrido[3,4-b]indol-1-yl)-3,5-difluorophenyl)-2,7-diazaspiro[4.4]nonan-2-yl)-2-oxoethyl)-2-(2,6-dioxopiperidin-3-yl)-6,7-dihydropyrrolo[3,4-f]isoindole-1,3(2H,5H)-dione] | B (“B”: 10-100 nM)
C[C@H]1Cc2c([nH]c3ccccc23)[C@H](c2c(F)cc(N3CC4(CCCN(C(=O)CN5Cc6cc7c(cc6C5)C(=O)N(C5CCC(=O)NC5=O)C7=O)C4)C3)cc2F)N1CC(F)F (stereo partly drawn) [Compound B23, 6-(2-(2-(4-((1S,3S)-2-(2,2-difluoroethyl)-3-methyl-2,3,4,9-tetrahydro-1H-pyrido[3,4-b]indol-1-yl)-3,5-difluorophenyl)-2,6-diazaspiro[3.5]nonan-6-yl)-2-oxoethyl)-2-(2,6-dioxopiperidin-3-yl)-6,7-dihydropyrrolo[3,4-f]isoindole-1,3(2H,5H)-dione] | B (“B”: 10-100 nM)
C[C@@H]1Cc2c([nH]c3ccccc23)[C@@H](c2c(F)cc(N3CCCC4(CN(C(=O)CN5Cc6cc7c(cc6C5)C(=O)N(C5CCC(=O)NC5=O)C7=O)C4)C3)cc2F)N1CC(F)F (stereo partly drawn) [Compound B24, 6-(2-(6-(4-((1R,3R)-2-(2,2-difluoroethyl)-3-methyl-2,3,4,9-tetrahydro-1H-pyrido[3,4-b]indol-1-yl)-3,5-difluorophenyl)-2,6-diazaspiro[3.5]nonan-2-yl)-2-oxoethyl)-2-(2,6-dioxopiperidin-3-yl)-6,7-dihydropyrrolo[3,4-f]isoindole-1,3(2H,5H)-dione] | B (“B”: 10-100 nM)
C[C@@H]1Cc2c([nH]c3ccccc23)[C@@H](c2c(F)cc(N3CC4(CN(C(=O)CN5Cc6cc7c(cc6C5)C(=O)N(C5CCC(=O)NC5=O)C7=O)C4)C3)cc2F)N1CC(F)F (stereo partly drawn) [Compound B25, 6-(2-(6-(4-((1R,3R)-2-(2,2-difluoroethyl)-3-methyl-2,3,4,9-tetrahydro-1H-pyrido[3,4-b]indol-1-yl)-3,5-difluorophenyl)-2,6-diazaspiro[3.3]heptan-2-yl)-2-oxoethyl)-2-(2,6-dioxopiperidin-3-yl)-6,7-dihydropyrrolo[3,4-f]isoindole-1,3(2H,5H)-dione] | A (“A”: <10 nM)
C[C@@H]1Cc2c([nH]c3ccccc23)[C@@H](c2c(F)cc(N3CCC4(CN(C(=O)CN5Cc6cc7c(cc6C5)C(=O)N(C5CCC(=O)NC5=O)C7=O)C4)C3)cc2F)N1CC(F)F (stereo partly drawn) [Compound B26, 6-(2-(6-(4-((1R,3R)-2-(2,2-difluoroethyl)-3-methyl-2,3,4,9-tetrahydro-1H-pyrido[3,4-b]indol-1-yl)-3,5-difluorophenyl)-2,6-diazaspiro[3.4]octan-2-yl)-2-oxoethyl)-2-(2,6-dioxopiperidin-3-yl)-6,7-dihydropyrrolo[3,4-f]isoindole-1,3(2H,5H)-dione] | A (“A”: <10 nM)
C[C@H]1Cc2c([nH]c3ccccc23)[C@H](c2c(F)cc(N3CC4(CCN(C(=O)CN5Cc6cc7c(cc6C5)C(=O)N(C5CCC(=O)NC5=O)C7=O)CC4)C3)cc2F)N1CC(F)F (stereo partly drawn) [Compound B27, 6-(2-(2-(4-((1S,3S)-2-(2,2-difluoroethyl)-3-methyl-2,3,4,9-tetrahydro-1H-pyrido[3,4-b]indol-1-yl)-3,5-difluorophenyl)-2,7-diazaspiro[3.5]nonan-7-yl)-2-oxoethyl)-2-(2,6-dioxopiperidin-3-yl)-6,7-dihydropyrrolo[3,4-f]isoindole-1,3(2H,5H)-dione] | A (“A”: <10 nM)
C[C@H]1Cc2c([nH]c3ccccc23)[C@H](c2c(F)cc(N3CC4(CCN(C(=O)CN5Cc6cc7c(cc6C5)C(=O)N(C5CCC(=O)NC5=O)C7)CC4)C3)cc2F)N1CC(F)F (stereo partly drawn) [Compound B28, 3-(6-(2-(2-(4-((1S,3S)-2-(2,2-difluoroethyl)-3-methyl-2,3,4,9-tetrahydro-1H-pyrido[3,4-b]indol-1-yl)-3,5-difluorophenyl)-2,7-diazaspiro[3.5]nonan-7-yl)-2-oxoethyl)-1-oxo-3,5,6,7-tetrahydropyrrolo[3,4-f]isoindol-2(1H)-yl)piperidine-2,6-dione] | A (“A”: <10 nM)
C[C@@H]1Cc2c([nH]c3ccccc23)[C@@H](c2c(F)cc(N3CCC(N4CCC(CN5Cc6cc7c(cc6C5)C(=O)N(C5CCC(=O)NC5=O)C7)CC4)CC3)cc2F)N1CC(F)F (stereo partly drawn) [Compound B29, 3-(6-((1′-(4-((1R,3R)-2-(2,2-difluoroethyl)-3-methyl-2,3,4,9-tetrahydro-1H-pyrido[3,4-b]indol-1-yl)-3,5-difluorophenyl)-[1,4′-bipiperidin]-4-yl)methyl)-1-oxo-3,5,6,7-tetrahydropyrrolo[3,4-f]isoindol-2(1H)-yl)piperidine-2,6-dione] | B (“B”: 10-100 nM)
C[C@@H]1Cc2c([nH]c3ccccc23)[C@@H](c2c(F)cc(N3CCC(N4CCC(N5Cc6cc7c(cc6C5)C(=O)N(C5CCC(=O)NC5=O)C7=O)CC4)CC3)cc2F)N1CC(F)F (stereo partly drawn) [Compound B30, 6-(1′-(4-((1R,3R)-2-(2,2-difluoroethyl)-3-methyl-2,3,4,9-tetrahydro-1H-pyrido[3,4-b]indol-1-yl)-3,5-difluorophenyl)-[1,4′-bipiperidin]-4-yl)-2-(2,6-dioxopiperidin-3-yl)-6,7-dihydropyrrolo[3,4-f]isoindole-1,3(2H,5H)-dione] | C (“C”: >100 nM)

Second part, the compound after the results:

Traditional Western Degradation Potency | Structure (SMILES)
C (“C”: >100 nM) | C[C@@H]1Cc2c([nH]c3ccccc23)[C@@H](c2c(F)cc(N3CCC(N4Cc5cc6c(cc5C4)C(=O)N(C4CCC(=O)NC4=O)C6=O)CC3)cc2F)N1CC(F)F (stereo partly drawn) [Compound B31, 6-(1-(4-((1R,3R)-2-(2,2-difluoroethyl)-3-methyl-2,3,4,9-tetrahydro-1H-pyrido[3,4-b]indol-1-yl)-3,5-difluorophenyl)piperidin-4-yl)-2-(2,6-dioxopiperidin-3-yl)-6,7-dihydropyrrolo[3,4-f]isoindole-1,3(2H,5H)-dione]
C (“C”: >100 nM) | C[C@@H]1Cc2c([nH]c3ccccc23)[C@@H](c2c(F)cc(N3CCC(CN4Cc5cc6c(cc5C4)C(=O)N(C4CCC(=O)NC4=O)C6=O)CC3)cc2F)N1CC(F)F (stereo partly drawn) [Compound B32, 6-((1-(4-((1R,3R)-2-(2,2-difluoroethyl)-3-methyl-2,3,4,9-tetrahydro-1H-pyrido[3,4-b]indol-1-yl)-3,5-difluorophenyl)piperidin-4-yl)methyl)-2-(2,6-dioxopiperidin-3-yl)-6,7-dihydropyrrolo[3,4-f]isoindole-1,3(2H,5H)-dione]
A (“A”: <10 nM) | C[C@@H]1Cc2c([nH]c3ccccc23)[C@@H](c2c(F)cc(N3CCC(N4CCC(CC(=O)N5Cc6cc7c(cc6C5)C(=O)N(C5CCC(=O)NC5=O)C7=O)CC4)CC3)cc2F)N1CC(F)F (stereo partly drawn) [Compound B33, 6-(2-(1′-(4-((1R,3R)-2-(2,2-difluoroethyl)-3-methyl-2,3,4,9-tetrahydro-1H-pyrido[3,4-b]indol-1-yl)-3,5-difluorophenyl)-[1,4′-bipiperidin]-4-yl)acetyl)-2-(2,6-dioxopiperidin-3-yl)-6,7-dihydropyrrolo[3,4-f]isoindole-1,3(2H,5H)-dione]
A (“A”: <10 nM) | C[C@@H]1Cc2c([nH]c3ccccc23)[C@@H](c2c(F)cc(N3CCC(N4CCC(CC(=O)N5Cc6cc7c(cc6C5)C(=O)N(C5CCC(=O)NC5=O)C7)CC4)CC3)cc2F)N1CC(F)F (stereo partly drawn) [Compound B34, 3-(6-(2-(1′-(4-((1R,3R)-2-(2,2-difluoroethyl)-3-methyl-2,3,4,9-tetrahydro-1H-pyrido[3,4-b]indol-1-yl)-3,5-difluorophenyl)-[1,4′-bipiperidin]-4-yl)acetyl)-1-oxo-3,5,6,7-tetrahydropyrrolo[3,4-f]isoindol-2(1H)-yl)piperidine-2,6-dione]
A (“A”: <10 nM) | C[C@@H]1Cc2c([nH]c3ccccc23)[C@@H](c2c(F)cc(N3CCC(N4CCN(CC(=O)N5Cc6cc7c(cc6C5)C(=O)N(C5CCC(=O)NC5=O)C7=O)CC4)CC3)cc2F)N1CC(F)F (stereo partly drawn) [Compound B35, 6-(2-(4-(1-(4-((1R,3R)-2-(2,2-difluoroethyl)-3-methyl-2,3,4,9-tetrahydro-1H-pyrido[3,4-b]indol-1-yl)-3,5-difluorophenyl)piperidin-4-yl)piperazin-1-yl)acetyl)-2-(2,6-dioxopiperidin-3-yl)-6,7-dihydropyrrolo[3,4-f]isoindole-1,3(2H,5H)-dione]
